The test system of one data set is S. Aureus. Format: cell-based. The protocol:
(§1) Antimicrobial Activity Assay The following microbroth dilution protocol was adapted to determine the MIC of each peptide. First, Mueller-Hinton broth (MHB) was passed through an anion exchange column to remove polyanionic species and generate refined MHB. This refined broth was then used in the standard microbroth dilution protocol devised by Hancock et al. for 96 well plates. […] Briefly, bacterial cells were grown overnight in refined MHB at 37° C. and then diluted and allowed to grow again for several hours. Serial dilutions of peptide stocks in water (10 μl) were prepared using clear round-bottom polypropylene 96-well plates. Then 90 μl of bacteria in refined MHB was added to give a final inoculum of 5×10^5 CFU/ml. The plates were then covered with porous tape to reduce evaporation, and incubated for 20-24 hours at 37° C.

The test system of another data set is B. cereus. Format: cell-based. The protocol: as §1
The next data set has as its system P. aeruginosa. Format: cell-based. Here is the method: as §1
In a further data set the test system is MRSA. Format: cell-based. Here is the method: as §1
A further data set relates to E. coli. It counts as cell-based, Escherichia coli. The note with it: for Antimicrobial Activity NIC (μg/ml) E. coli: Table 1, microbroth dilution, refined MHB, 20-24 hours at 37° C. The protocol:
as §1

The nature of the next data set: circular dichroism. The note with it: 10 mM phosphate buffer; pH 7.4; ns °C; 100 uM. On the technique in general: CD spectra are sensitive to the conformation of chiral molecules.
Data set [1] concerns human red blood cells (RBCs). Format: cell-based. The note with it: for % Hemolysis at 50 μg/ml: red cells of human, 1 h. An excerpt:
One of the key obstacles that have long impeded the use of AMPs in systemic infections such as sepsis is their tendency to lyse human cells, such as red blood cells (RBCs). Thus, it is critical to minimize hemolytic activity as much as possible to achieve a therapeutic window. […] Of note, in those circumstances where hydrocarbon staples increase hemolytic activity due to increasing hydrophobicity, the alkene moiety can be modified, e.g., by dihydroxylation, to install hydrophilic residues and potentially mitigate hemolysis.
Hemolytic Activity Assay For the determination of hemolytic activity, the following protocol was applied: human blood samples were centrifuged to isolate red blood cells (RBCs), which were then washed and suspended in phosphate-buffered saline to yield a 1% (v/v) suspension. This suspension was then added to serial dilutions of peptide stocks in water in clear round-bottom polypropylene 96-well plates and the plates incubated for 1 hour at 37° C. After incubation, the plates were centrifuged and the supernatant isolated to determine the amount of hemoglobin released using a spectrophotometer (570 nm). The minimum hemolytic concentration (MHC) was determined by assessing the peptide concentration at which there was less than 1% hemoglobin release.

Where two headings read alike, the source gives them in different places. Positions of bridges follow the written chain, without caps; N, C: chain ends. Non-standard residues stand in square brackets, D forms with d. Residues, ends and D or L forms follow the SMILES beside them. R8 = C=CCCCCCC[C@@](C)(N)C(=O)O; S5 = C=CCCC[C@](C)(N)C(=O)O

The source of these data is patent US12391733B2, “Stapled intracellular-targeting antimicrobial peptides to treat infection” (priority 2016, dated 2025).

Consider `CC(C)C[C@H](NC(=O)[C@H](CC(C)C)NC(=O)[C@H](CCCNC(=N)N)NC(=O)[C@H](Cc1c[nH]cn1)NC(=O)[C@@H](NC(=O)[C@H](CCCNC(=N)N)NC(=O)CNC(=O)[C@@H](NC(=O)[C@@H]1CCCN1C(=O)[C@H](Cc1c[nH]c2ccccc12)NC(=O)[C@H](CCC(N)=O)NC(=O)[C@H](CC(C)C)NC(=O)[C@]1(C)CCCC=CCCC[C@](C)(NC(=O)[C@H](CCCNC(=N)N)NC(=O)[C@@H](N)[C@@H](C)O)C(=O)N[C@@H](CO)C(=O)N[C@@H](CCCNC(=N)N)C(=O)N[C@@H](C)C(=O)N1)C(C)C)C(C)C)C(=O)N[C@@H](CCCNC(=N)N)C(=O)N[C@@H](CCCCN)C(N)=O` [BFStap(i + 4)11] (H-TR[S5]SRA[S5]LQWPVGRVHRLLRK-NH2; staple 3-7), for which the “Antimicrobial Activity MIC (μg/ml) S. Aureus” value with S. Aureus (Table 2) worked out at 50 µg/mL. Also, the “Antimicrobial Activity MIC (μg/ml) B. cereus” value with B. cereus (Table 2) was 25 µg/mL. For the same molecule, the “Antimicrobial Activity MIC (μg/ml) P. aeruginosa” value with P. aeruginosa (Table 2) worked out at 12.5 µg/mL. In addition, the “Antimicrobial Activity MIC (μg/ml) MRSA” value in the data set with MRSA (Table 2) is above 50 µg/mL. For the same molecule, the “Antimicrobial Activity MIC (μg/ml) E. coli” value with E. coli (Table 2) was determined as 6.25 µg/mL. Also, in the data set “circular dichroism”, the helicity worked out at 8%. Further, in data set [1], the “hemolytic activity (in words)” value is listed as “low hemolytic activity” and the “% Hemolysis at 50 μg/ml” value is listed as 3.1%.

For `CC(C)C[C@H](NC(=O)[C@H](CC(C)C)NC(=O)[C@H](CCCNC(=N)N)NC(=O)[C@H](Cc1c[nH]cn1)NC(=O)[C@@H](NC(=O)[C@H](CCCNC(=N)N)NC(=O)CNC(=O)[C@]1(C)CCCC=CCCC[C@](C)(NC(=O)CNC(=O)[C@H](C)NC(=O)[C@H](CCCNC(=N)N)NC(=O)[C@H](CO)NC(=O)[C@H](CO)NC(=O)[C@H](CCCNC(=N)N)NC(=O)[C@@H](N)[C@@H](C)O)C(=O)N[C@@H](CCC(N)=O)C(=O)N[C@@H](Cc2c[nH]c3ccccc23)C(=O)N2CCC[C@H]2C(=O)N1)C(C)C)C(=O)N[C@@H](CCCNC(=N)N)C(=O)N[C@@H](CCCCN)C(N)=O` [BFStap(i + 4)8] (H-TRSSRAG[S5]QWP[S5]GRVHRLLRK-NH2; staple 8-12; N-terminus and C-terminus assumed), the “Antimicrobial Activity NIC (μg/ml) E. coli” value (“Antimicrobial Activity NIC” below) in the data set on E. coli was 29.2 µg/mL. This molecule registered a helicity in “circular dichroism” of 2.3%. In addition, the “% Hemolysis at 50 μg/ml” value in data set [1] is recorded as 2.8%.

As for `CC(C)C[C@H](NC(=O)[C@H](CC(C)C)NC(=O)[C@H](CCCNC(=N)N)NC(=O)[C@H](Cc1c[nH]cn1)NC(=O)[C@@H](NC(=O)[C@H](CCCNC(=N)N)NC(=O)CNC(=O)[C@@H](NC(=O)[C@@H]1CCCN1C(=O)[C@H](Cc1c[nH]c2ccccc12)NC(=O)[C@H](CCC(N)=O)NC(=O)[C@]1(C)CCCC=CCCC[C@](C)(NC(=O)[C@H](CO)NC(=O)[C@H](CCCNC(=N)N)NC(=O)[C@@H](N)[C@@H](C)O)C(=O)N[C@@H](CCCNC(=N)N)C(=O)N[C@@H](C)C(=O)NCC(=O)N1)C(C)C)C(C)C)C(=O)N[C@@H](CCCNC(=N)N)C(=O)N[C@@H](CCCCN)C(N)=O` [BFStap(i + 4)10] (H-TRS[S5]RAG[S5]QWPVGRVHRLLRK-NH2; staple 4-8; N-terminus and C-terminus assumed), the “Antimicrobial Activity NIC” value with E. coli was determined as 100 µg/mL. Moreover, the helicity in the data set “circular dichroism” was 20.9%. Besides, in data set [1], the “% Hemolysis at 50 μg/ml” value turned out to be 2.4%.

Consider `CC(C)C[C@H](NC(=O)CNC(=O)[C@]1(C)CCCC=CCCC[C@](C)(NC(=O)[C@@H](N)[C@@H](C)O)C(=O)N[C@@H](CO)C(=O)N[C@@H](CO)C(=O)N[C@@H](CCCNC(=N)N)C(=O)N1)C(=O)N[C@@H](CCC(N)=O)C(=O)N[C@@H](Cc1c[nH]c2ccccc12)C(=O)N1CCC[C@H]1C(=O)N[C@H](C(=O)NCC(=O)N[C@@H](CCCNC(=N)N)C(=O)N[C@H](C(=O)N[C@@H](Cc1c[nH]cn1)C(=O)N[C@@H](CCCNC(=N)N)C(=O)N[C@@H](CC(C)C)C(=O)N[C@@H](CC(C)C)C(=O)N[C@@H](CCCNC(=N)N)C(=O)N[C@@H](CCCCN)C(N)=O)C(C)C)C(C)C` [BFStap(i + 4)12] (H-T[S5]SSR[S5]GLQWPVGRVHRLLRK-NH2; staple 2-6; N-terminus and C-terminus assumed), for which, in the data set on E. coli, the “Antimicrobial Activity NIC” value was above 100 µg/mL. In the data set “circular dichroism”, this molecule registered a helicity of 5.3%. The “% Hemolysis at 50 μg/ml” value in data set [1] was 2.4%.

Regarding `CC(C)C[C@@H]1NC(=O)CNC(=O)[C@H](C)NC(=O)[C@@](C)(NC(=O)[C@H](CO)NC(=O)[C@H](CO)NC(=O)[C@H](CCCNC(=N)N)NC(=O)[C@@H](N)[C@@H](C)O)CCCC=CCCC[C@@](C)(C(=O)N[C@@H](Cc2c[nH]c3ccccc23)C(=O)N2CCC[C@H]2C(=O)N[C@H](C(=O)NCC(=O)N[C@@H](CCCNC(=N)N)C(=O)N[C@H](C(=O)N[C@@H](Cc2c[nH]cn2)C(=O)N[C@@H](CCCNC(=N)N)C(=O)N[C@@H](CC(C)C)C(=O)N[C@@H](CC(C)C)C(=O)N[C@@H](CCCNC(=N)N)C(=O)N[C@@H](CCCCN)C(N)=O)C(C)C)C(C)C)NC1=O` [BFStap(i + 4)9] (H-TRSS[S5]AGL[S5]WPVGRVHRLLRK-NH2; staple 5-9; N-terminus and C-terminus assumed), the “Antimicrobial Activity NIC” value in the data set on E. coli worked out at 50.0 µg/mL. For the same molecule, the helicity in “circular dichroism” turned out to be 11.7%. In addition, the “% Hemolysis at 50 μg/ml” value in data set [1] was determined as 2.5%.

Consider `CC(C)C[C@H](NC(=O)[C@H](CC(C)C)NC(=O)[C@H](CCCNC(=N)N)NC(=O)[C@H](Cc1c[nH]cn1)NC(=O)[C@@H](NC(=O)[C@]1(C)CCCC=CCCCCCC[C@@](C)(NC(=O)[C@H](C)NC(=O)[C@H](CCCNC(=N)N)NC(=O)[C@H](CO)NC(=O)[C@H](CO)NC(=O)[C@H](CCCNC(=N)N)NC(=O)[C@@H](N)[C@@H](C)O)C(=O)N[C@@H](CC(C)C)C(=O)N[C@@H](CCC(N)=O)C(=O)N[C@@H](Cc2c[nH]c3ccccc23)C(=O)N2CCC[C@H]2C(=O)N[C@@H](C(C)C)C(=O)NCC(=O)N1)C(C)C)C(=O)N[C@@H](CCCNC(=N)N)C(=O)N[C@@H](CCCCN)C(N)=O` [BFStap(i + 7)6] (H-TRSSRA[R8]LQWPVG[S5]VHRLLRK-NH2; staple 7-14), for which, in the data set with S. Aureus, the “Antimicrobial Activity MIC (μg/ml) S. Aureus” value is 25 µg/mL. The “Antimicrobial Activity MIC (μg/ml) B. cereus” value in the data set on B. cereus is 12.5 µg/mL. Moreover, in the data set on P. aeruginosa, the “Antimicrobial Activity MIC (μg/ml) P. aeruginosa” value was found to be 12.5 µg/mL. Further, in the data set on MRSA, the “Antimicrobial Activity MIC (μg/ml) MRSA” value was above 50 µg/mL. Also, the “Antimicrobial Activity MIC (μg/ml) E. coli” value with E. coli was determined as 6.25 µg/mL. The helicity in “circular dichroism” came to 7.3%. The “% Hemolysis at 50 μg/ml” value in data set [1] was found to be 9.5%.
